Molecules are shown by their SMILES. Activity calls are given as the source filed them.

One assay concerns the target T1, Phospholipase D1 (Homo sapiens, UniProt Q13393).
T1 sequence (Q13393 whole entry): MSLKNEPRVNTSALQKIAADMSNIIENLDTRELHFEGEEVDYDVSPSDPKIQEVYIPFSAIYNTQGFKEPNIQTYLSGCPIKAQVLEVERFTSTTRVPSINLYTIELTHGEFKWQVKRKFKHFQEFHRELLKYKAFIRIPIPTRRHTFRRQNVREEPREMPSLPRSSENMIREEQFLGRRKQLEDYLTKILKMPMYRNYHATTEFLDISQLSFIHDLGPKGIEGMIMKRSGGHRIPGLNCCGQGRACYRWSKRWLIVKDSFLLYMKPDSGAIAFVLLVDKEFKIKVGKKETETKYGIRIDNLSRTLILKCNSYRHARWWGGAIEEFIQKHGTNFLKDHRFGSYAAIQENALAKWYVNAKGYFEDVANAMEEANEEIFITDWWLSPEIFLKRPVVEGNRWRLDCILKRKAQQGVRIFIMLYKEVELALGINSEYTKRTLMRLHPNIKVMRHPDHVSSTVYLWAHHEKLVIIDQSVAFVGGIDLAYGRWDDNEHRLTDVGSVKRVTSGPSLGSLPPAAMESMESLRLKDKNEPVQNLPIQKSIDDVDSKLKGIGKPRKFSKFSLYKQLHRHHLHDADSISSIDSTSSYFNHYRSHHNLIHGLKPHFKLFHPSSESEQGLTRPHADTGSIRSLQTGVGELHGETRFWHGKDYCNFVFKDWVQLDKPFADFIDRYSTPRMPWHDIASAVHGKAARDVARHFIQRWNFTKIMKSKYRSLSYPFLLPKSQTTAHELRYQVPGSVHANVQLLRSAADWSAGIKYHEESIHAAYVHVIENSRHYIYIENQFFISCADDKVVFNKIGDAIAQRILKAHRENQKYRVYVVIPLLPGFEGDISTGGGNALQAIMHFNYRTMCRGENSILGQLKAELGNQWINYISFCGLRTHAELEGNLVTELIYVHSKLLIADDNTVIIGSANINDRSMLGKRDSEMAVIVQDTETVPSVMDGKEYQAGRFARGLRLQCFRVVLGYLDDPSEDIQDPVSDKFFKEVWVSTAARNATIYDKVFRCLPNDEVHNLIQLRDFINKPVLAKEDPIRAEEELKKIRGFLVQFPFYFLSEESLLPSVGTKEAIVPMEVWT
Briefly: PLD1 Cellular Concentration Response Study. Format: functional.

A further assay concerns the target Phospholipase D2 (Homo sapiens, UniProt O14939). Briefly: PLD2 Cellular Concentration Response Study. The assay is classed as functional.
Assay [1] concerns the target G-protein coupled receptor 183 (Homo sapiens, UniProt P32249). The assay can be described thus: SAR confirmation of small molecule antagonists of the EBI2 receptor via a luminescent beta-arrestin assa. Format: functional.
The target in assay [2] is T2, Low molecular weight phosphotyrosine protein phosphatase (Homo sapiens, UniProt P24666).
T2 sequence (P24666 whole entry): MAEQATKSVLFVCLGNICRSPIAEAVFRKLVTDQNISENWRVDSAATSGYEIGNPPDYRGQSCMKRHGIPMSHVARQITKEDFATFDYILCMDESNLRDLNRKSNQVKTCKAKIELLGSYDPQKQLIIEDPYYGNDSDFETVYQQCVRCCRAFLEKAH
The assay can be described thus: LMPTP phosphatase inhibitors, dose response, biochemical, OMFP substrate, fluorescence intensity, set 2 (AID 743307). Format: functional.

Assay [3] addresses T2, Low molecular weight phosphotyrosine protein phosphatase. Briefly: LMPTP phosphatase inhibitors, colorimetric pNPP readout, dose response, orthogonal assay, biochemical, absorbance, pNPP substrate, LMPTP-A isoform, set 2 (AID 743308). Format: functional.
A short description of assay [4]: Vero cell cytotoxicity, dose response, cytotoxicity control for Vif-APOBEC3G degradation inhibitor project, Vero cells (AID 1117358). As to conditions: Human immunodeficiency virus 1, Vero. The assay is classed as functional.
For assay [5], the target named is T3, Estrogen receptor beta (Homo sapiens, UniProt Q92731).
T3 sequence (Q92731 whole entry): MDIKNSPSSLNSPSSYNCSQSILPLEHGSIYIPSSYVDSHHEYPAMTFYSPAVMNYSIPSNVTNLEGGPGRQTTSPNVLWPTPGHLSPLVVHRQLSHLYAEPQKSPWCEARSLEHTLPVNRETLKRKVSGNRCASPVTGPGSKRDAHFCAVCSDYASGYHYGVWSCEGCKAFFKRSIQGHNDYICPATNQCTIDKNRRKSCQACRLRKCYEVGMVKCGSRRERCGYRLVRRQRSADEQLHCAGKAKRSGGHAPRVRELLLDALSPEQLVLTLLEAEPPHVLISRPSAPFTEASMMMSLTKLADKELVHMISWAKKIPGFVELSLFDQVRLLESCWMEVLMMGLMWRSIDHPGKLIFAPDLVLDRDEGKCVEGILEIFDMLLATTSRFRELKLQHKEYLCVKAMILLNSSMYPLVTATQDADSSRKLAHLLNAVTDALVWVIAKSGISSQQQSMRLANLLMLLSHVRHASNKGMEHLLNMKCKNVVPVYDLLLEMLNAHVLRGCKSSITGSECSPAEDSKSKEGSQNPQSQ
Assay [6] deals with T3, Estrogen receptor beta. The assay can be described thus: ERβ–SRC-3 coactivator interaction inhibitors, confirmation, orthogonal assay, biochemical, ELISA, streptavidin-HRP readout (AID 1060).
The target of assay [7] is Heat shock protein HSP 90-alpha (Homo sapiens, UniProt P07900). The assay is classed as functional, organism-based.
The target of assay [8] is T4, Replicative DNA helicase DnaB (Mycobacterium tuberculosis, UniProt P9WMR3).
T4 sequence (P9WMR3 whole entry): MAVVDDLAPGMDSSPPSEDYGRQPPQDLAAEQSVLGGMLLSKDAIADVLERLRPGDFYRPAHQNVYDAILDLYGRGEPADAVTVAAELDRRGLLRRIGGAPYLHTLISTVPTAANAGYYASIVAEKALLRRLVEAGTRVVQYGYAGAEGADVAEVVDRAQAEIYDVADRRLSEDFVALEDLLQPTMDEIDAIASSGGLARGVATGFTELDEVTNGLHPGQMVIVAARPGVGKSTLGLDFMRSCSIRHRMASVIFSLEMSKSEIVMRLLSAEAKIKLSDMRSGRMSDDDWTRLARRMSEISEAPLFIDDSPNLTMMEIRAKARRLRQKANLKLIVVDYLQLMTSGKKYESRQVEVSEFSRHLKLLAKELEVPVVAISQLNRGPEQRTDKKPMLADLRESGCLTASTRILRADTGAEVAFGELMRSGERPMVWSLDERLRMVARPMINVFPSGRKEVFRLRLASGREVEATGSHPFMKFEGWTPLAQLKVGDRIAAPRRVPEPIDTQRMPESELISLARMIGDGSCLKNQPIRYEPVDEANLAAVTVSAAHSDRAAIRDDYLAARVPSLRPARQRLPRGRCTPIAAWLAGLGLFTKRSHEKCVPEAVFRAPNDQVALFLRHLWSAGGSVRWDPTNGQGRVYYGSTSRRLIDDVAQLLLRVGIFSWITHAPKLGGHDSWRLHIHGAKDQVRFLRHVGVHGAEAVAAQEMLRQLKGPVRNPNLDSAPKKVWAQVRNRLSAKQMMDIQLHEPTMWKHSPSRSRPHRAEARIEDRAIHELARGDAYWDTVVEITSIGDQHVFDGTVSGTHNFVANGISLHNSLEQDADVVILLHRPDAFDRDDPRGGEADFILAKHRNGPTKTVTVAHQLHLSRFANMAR
The assay can be described thus: DnaB intein splicing inhibitors, dose response, biochemical, cell-free fluorescence (AID 449749). The assay is classed as functional.

Assay [9] has as its target T5, Apoptotic protease-activating factor 1 (Homo sapiens, UniProt O14727).
T5 sequence (O14727 whole entry): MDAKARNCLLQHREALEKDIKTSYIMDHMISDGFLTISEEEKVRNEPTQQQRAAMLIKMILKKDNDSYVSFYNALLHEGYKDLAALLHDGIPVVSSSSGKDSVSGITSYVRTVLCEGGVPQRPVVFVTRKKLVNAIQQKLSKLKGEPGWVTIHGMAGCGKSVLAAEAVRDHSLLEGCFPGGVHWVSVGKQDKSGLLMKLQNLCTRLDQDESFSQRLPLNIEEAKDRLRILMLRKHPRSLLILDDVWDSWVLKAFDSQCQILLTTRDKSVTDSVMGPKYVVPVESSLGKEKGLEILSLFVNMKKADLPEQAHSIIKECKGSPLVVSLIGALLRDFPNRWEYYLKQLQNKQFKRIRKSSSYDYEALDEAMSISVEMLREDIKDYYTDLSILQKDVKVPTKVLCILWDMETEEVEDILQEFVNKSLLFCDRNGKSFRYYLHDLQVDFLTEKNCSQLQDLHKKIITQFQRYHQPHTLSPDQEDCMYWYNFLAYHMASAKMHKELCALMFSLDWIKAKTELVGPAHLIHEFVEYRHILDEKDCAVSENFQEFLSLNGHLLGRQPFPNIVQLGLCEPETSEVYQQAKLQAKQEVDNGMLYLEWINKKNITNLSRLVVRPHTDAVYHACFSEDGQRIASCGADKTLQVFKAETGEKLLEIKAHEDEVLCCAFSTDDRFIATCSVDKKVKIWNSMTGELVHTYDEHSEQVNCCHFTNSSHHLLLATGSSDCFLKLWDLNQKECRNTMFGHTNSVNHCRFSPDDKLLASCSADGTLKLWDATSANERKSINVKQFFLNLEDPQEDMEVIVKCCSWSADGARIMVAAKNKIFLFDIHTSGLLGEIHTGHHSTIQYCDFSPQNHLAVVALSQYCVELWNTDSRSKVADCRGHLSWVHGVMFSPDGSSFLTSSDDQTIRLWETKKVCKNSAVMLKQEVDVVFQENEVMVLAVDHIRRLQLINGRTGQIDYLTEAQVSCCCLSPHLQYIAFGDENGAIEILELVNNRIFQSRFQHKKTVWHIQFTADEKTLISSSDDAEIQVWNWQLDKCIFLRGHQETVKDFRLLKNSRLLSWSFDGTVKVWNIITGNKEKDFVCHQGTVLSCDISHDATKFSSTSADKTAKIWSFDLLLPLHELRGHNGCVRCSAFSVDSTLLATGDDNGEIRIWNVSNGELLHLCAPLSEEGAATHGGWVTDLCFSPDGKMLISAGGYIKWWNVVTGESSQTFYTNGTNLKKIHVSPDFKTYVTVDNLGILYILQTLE
The assay is classed as functional.

Assay [10] can be described thus: Artemis endonuclease inhibitor potency, dose response, biochemical, fluorescence intensity (AID 720701).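 Also: Artemis endonuclease enzyme.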 Format: functional.
In the next assay the target is T6, Protein RecA (Mycobacterium tuberculosis, UniProt P9WHJ3).
T6 sequence (P9WHJ3 whole entry): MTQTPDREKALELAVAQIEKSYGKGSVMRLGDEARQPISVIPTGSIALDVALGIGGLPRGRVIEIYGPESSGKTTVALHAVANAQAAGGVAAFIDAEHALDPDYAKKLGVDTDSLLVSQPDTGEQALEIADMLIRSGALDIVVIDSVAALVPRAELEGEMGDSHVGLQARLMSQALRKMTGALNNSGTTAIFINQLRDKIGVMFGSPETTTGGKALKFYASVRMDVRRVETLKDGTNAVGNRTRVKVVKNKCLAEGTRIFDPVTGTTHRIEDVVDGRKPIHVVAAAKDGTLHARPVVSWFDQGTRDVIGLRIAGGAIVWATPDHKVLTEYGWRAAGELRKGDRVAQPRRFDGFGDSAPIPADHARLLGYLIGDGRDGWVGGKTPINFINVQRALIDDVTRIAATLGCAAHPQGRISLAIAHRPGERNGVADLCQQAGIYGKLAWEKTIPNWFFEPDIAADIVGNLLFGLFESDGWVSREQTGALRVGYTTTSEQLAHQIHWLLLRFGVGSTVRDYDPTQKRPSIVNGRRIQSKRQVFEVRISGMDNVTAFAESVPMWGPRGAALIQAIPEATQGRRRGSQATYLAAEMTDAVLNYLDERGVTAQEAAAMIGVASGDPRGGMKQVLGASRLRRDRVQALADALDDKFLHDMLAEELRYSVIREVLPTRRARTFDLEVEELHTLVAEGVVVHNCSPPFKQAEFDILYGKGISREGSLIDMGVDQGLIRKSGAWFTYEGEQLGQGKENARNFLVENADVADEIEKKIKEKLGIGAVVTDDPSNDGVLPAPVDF
The assay can be described thus: Fluorescence Cell-Free Homogeneous Dose Retest to Identify Inhibitors of RecA-Intein Splicing Activity. [Related pubchem assays (depositor defined):AID2097, AID2223, AID489010, AID492950]. Format: functional.

The nature of assay [11]: inhibitors of Vif binding to APOBEC3G peptide, primary screen, biochemical, TR-FRET, GST-Vif 1-94, biotin-A3G peptide, dose response retest (AID 1117319).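 Also: TR-FRET signal of purified GST-Vif binding a biotinylated A3G peptide; inhibitors lower the FRET signal by blocking Vif and A3G binding.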 The assay is classed as functional.
Another assay addresses T7, Protein Tat (Human immunodeficiency virus type 1 group M subtype B (isolate HXB2)(HIV-1), UniProt P04608).
T7 sequence (P04608 whole entry): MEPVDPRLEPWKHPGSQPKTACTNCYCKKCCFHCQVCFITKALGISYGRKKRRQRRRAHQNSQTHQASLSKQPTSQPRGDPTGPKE
The assay is classed as functional.

Assay [12] deals with RNA-editing ligase 1, mitochondrial (Trypanosoma brucei brucei, UniProt P86926). The assay can be described thus: TbREL1 ligase inhibitors, dose response, biochemical, fluorescence, Trypanosoma brucei (AID 1117295). The assay is classed as functional.
Sequence of RNA-editing ligase 1, mitochondrial (P86926 whole entry): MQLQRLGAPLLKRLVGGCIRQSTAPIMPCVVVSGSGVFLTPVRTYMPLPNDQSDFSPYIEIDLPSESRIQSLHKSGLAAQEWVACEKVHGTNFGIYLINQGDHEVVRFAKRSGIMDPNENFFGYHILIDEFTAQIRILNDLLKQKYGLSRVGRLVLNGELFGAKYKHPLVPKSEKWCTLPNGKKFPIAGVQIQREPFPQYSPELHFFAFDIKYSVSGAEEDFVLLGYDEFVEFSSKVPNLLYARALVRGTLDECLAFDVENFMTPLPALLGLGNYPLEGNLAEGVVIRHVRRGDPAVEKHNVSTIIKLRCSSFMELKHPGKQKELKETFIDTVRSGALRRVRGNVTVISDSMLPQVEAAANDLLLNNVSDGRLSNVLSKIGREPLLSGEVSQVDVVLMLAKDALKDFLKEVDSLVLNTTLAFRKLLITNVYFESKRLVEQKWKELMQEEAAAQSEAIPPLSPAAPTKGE

Sequence of G-protein coupled receptor 183 (P32249 whole entry): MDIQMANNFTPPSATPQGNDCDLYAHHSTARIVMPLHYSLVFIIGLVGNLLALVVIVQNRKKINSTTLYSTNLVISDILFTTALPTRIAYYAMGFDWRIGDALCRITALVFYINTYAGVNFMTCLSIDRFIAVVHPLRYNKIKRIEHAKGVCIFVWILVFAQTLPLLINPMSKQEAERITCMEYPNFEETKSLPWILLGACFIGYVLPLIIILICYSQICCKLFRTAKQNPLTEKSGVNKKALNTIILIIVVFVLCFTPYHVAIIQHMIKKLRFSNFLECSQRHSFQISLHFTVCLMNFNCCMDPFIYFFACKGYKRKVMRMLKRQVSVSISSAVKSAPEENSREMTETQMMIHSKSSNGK
Sequence of Phospholipase D2 (O14939 whole entry): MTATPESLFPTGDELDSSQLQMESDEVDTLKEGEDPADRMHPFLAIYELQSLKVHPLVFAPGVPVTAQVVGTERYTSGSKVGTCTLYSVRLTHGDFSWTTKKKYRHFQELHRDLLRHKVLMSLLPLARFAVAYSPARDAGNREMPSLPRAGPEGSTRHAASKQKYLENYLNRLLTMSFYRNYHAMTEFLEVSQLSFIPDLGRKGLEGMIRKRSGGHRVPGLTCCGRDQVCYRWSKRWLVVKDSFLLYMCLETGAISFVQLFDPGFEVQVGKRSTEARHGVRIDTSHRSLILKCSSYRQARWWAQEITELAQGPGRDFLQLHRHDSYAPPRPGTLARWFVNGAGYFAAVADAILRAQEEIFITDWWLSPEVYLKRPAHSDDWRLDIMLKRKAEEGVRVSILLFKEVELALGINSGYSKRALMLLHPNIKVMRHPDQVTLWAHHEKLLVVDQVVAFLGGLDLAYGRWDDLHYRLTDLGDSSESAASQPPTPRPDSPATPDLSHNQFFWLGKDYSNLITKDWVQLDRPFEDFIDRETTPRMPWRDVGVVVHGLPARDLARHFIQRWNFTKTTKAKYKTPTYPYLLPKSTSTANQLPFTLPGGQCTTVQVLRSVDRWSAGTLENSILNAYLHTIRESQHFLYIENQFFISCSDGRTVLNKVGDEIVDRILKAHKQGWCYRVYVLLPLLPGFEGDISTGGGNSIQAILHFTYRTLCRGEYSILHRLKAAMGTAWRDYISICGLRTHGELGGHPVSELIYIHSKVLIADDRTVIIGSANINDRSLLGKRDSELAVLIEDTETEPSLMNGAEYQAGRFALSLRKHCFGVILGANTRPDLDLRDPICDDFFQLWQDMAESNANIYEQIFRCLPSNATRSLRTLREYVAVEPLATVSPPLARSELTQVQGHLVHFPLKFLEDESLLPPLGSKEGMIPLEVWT

In the case of `O=C(NCCN1CCC2(CC1)C(=O)NCN2Cc1cccc2ccccc12)c1ccc2ccccc2c1`, the results for the IC50 at Phospholipase D1 and on Phospholipase D2 were 1.05 µM (active) and 0.16 µM (active), respectively.

Consider `O=C(Cc1ccc(Br)cc1)N1CCN(Cc2ccc(Cl)cc2)CC1`, for which the IC50 in assay [1] was > 1 µM (inactive).

Take `c1ccc(-c2cc(NCCCN3CCOCC3)c3ccccc3n2)cc1`: the IC50 was 7.68 µM (active) in assay [2] and 12.6 µM (active) in assay [3].

As to `C=C(Cl)COc1ccc2c(CCC)cc(=O)oc2c1`, in [4], the CC50 is > 40 µM (active).

Take `Cc1noc(C)c1CSCC(=O)OCC(=O)Nc1sccc1C#N`: the IC50 is 15.8 µM (active) at Estrogen receptor beta [5] and < 77 µM (not active) against Estrogen receptor beta [6].

With `O=C(/C=C/c1ccc(Br)cc1)N1CCN(Cc2ccc(Cl)cc2)CC1`, the IC50 in assay [1] is 0.00103 µM (active).

Turning to `c1ccc(-c2nc(N3CCCCCC3)c3ccccc3n2)cc1`, the IC50 was 72.2 µM (inactive) in assay [2] and > 80 µM (inactive) in assay [3].

In the case of `Cc1[nH]n(-c2ccccc2)c(=O)c1C(C[N+](=O)[O-])c1ccc(Br)cc1` (stereo not drawn), the AC50 in assay [7] was 7.85 µM (active); in assay [8], 7.55 µM (active). The IC50 was 4.17 µM (active) in assay [9] and > 20 µM (inactive) in [10]. Further, at Protein RecA, the EC50 is 5.73 µM (active).

`O=C(NCCN1CCC2(CC1)C(=O)NCN2Cc1cccnc1)c1ccc2ccccc2c1Br`: the IC50 at Phospholipase D1 is 20 µM (active); at Phospholipase D2, 1.24 µM (active).

Regarding `O=C(O)c1ccccc1NS(=O)(=O)c1ccccc1C(F)(F)F`, the IC50 in [11] was > 100 µM (active).

Take `CCc1nc(OCc2ccco2)c2sc3nc4c(cc3c2n1)COC(C)(C)C4`: the IC50 (at Protein Tat; in assay [11]) was > 100 µM (active) throughout. Further, the CC50 in [4] is > 40 µM (active).

Take `COC(=O)C1=C(C)N(Cc2ccccc2C(F)(F)F)C(NCc2ccc(C(F)(F)F)cc2)=NC1c1ccc(Cl)cc1` (stereo not drawn): the IC50 in [12] was > 96.6 µM (inactive).

For the origin of these results see ChEMBL document CHEMBL1201862, “PubChem BioAssay data set” (2004).
